Experimental data published in ChEMBL document CHEMBL1135158, “Pyrrolo[2,3-d]pyrimidines containing diverse N-7 substituents as potent inhibitors of Lck” (Bioorg Med Chem Lett, 2002).
One block for each molecule: values may come before it.

Tests used:
[1] = tested on: Mus musculus; assay: Compound was evaluated for the inhibition of TCR stimulated (anti-CD3 mAb) IL-2 production in mice following oral administration; assay type: functional
[2] = biological target: T1, Tyrosine-protein kinase CSK (Homo sapiens, UniProt P41240); assay: Inhibition of human Csk tyrosine kinase
[3] = biological target: T2, Angiopoietin-1 receptor (Homo sapiens, UniProt Q02763); assay: Inhibition of TIE-2 kinase.
[4] = biological target: Tyrosine-protein kinase Lyn (Homo sapiens, UniProt P07948); assay: Inhibition of human p56 Lyn tyrosine kinase
[5] = biological target: Tyrosine-protein kinase Lck (Homo sapiens, UniProt P06239); assay: Inhibition of human p56 Lck tyrosine kinase (lck64-509)
[6] = biological target: Tyrosine-protein kinase Fyn (Homo sapiens, UniProt P06241); assay: Inhibition of human p55 Fyn tyrosine kinase.
[7] = biological target: Tyrosine-protein kinase Blk (Homo sapiens, UniProt P51451); assay: Inhibition of human B lymphoid tyrosine kinase
[8] = biological target: Proto-oncogene tyrosine-protein kinase Src (Homo sapiens, UniProt P12931)
Description: Inhibition of Src protein tyrosine kinase

[9] = Half life period was determined after intravenous administration at a dose 5 mg/kg to male Sprague-Dawley rats; assay type: ADME, organism-based; design: dose 5 mg/kg, route intravenous; conditions: rat, in vivo
[10] = Maximum time constant was determined after oral administration at a dose 10 mg/kg to male Sprague-Dawley rats; assay type: ADME, organism-based; design: dose 10 mg/kg, route oral; conditions: rat, in vivo
[11] = Clearance was determined after intravenous administration at a dose 5 mg/kg to male Sprague-Dawley rats; assay type: ADME, organism-based; design: dose 5 mg/kg, route intravenous; conditions: rat, in vivo
[12] = Bioavailability was determined after intravenous administration at a dose 5 mg/kg to male Sprague-Dawley rats; assay type: ADME, organism-based; conditions: rat, in vivo
[13] = Volume of distribution was determined after intravenous administration at a dose 5 mg/kg to male Sprague-Dawley rats; assay type: ADME, organism-based; design: dose 5 mg/kg, route intravenous; conditions: rat, in vivo, read-out: Vz
[14] = Area under curve was determined after oral administration at a dose 10 mg/kg to male Sprague-Dawley rats; assay type: ADME, organism-based; design: dose 10 mg/kg, route oral; conditions: rat, in vivo
[15] = species: Homo sapiens; assay: Inhibition of IL-2 production in whole blood assay; assay type: functional
[16] = tested on: Jurkat; assay: Inhibition of IL-2 production in anti-CD3 stimulated Jurkat cells; assay type: functional, cell-based; conditions: Homo sapiens
[17] = tested on: Mus musculus; assay: Effective dose was evaluated in vivo for the inhibition of IFN-gamma production for 3 days peroral administration of the compound; assay type: functional; conditions: po, 72 h
[18] = biological target: Platelet-derived growth factor receptor (Homo sapiens, UniProt P09619+P16234); assay: Inhibition of Platelet-derived growth factor receptor (Inactive at 1 mM ATP); assay type: protein-complex assay
[19] = biological target: T1, Tyrosine-protein kinase CSK; assay: Inhibition of human Tyrosine-protein kinase CSK
[20] = Maximum plasma concentration was determined after oral administration at a dose 10 mg/kg to male Sprague-Dawley rats; assay type: ADME, organism-based; design: dose 10 mg/kg, route oral; conditions: rat
[21] = biological target: T2, Angiopoietin-1 receptor
[22] = Compound was evaluated for the pharmacokinetic parameter, maximum time constant; assay type: ADME, organism-based; conditions: mouse, in vivo
[23] = Compound was evaluated for the pharmacokinetic parameter, Terminal half life period; assay type: ADME, organism-based; conditions: mouse, in vivo
[24] = Compound was evaluated for the pharmacokinetic parameter, area under curve; assay type: ADME, organism-based; conditions: mouse, in vivo
[25] = Compound was evaluated for the pharmacokinetic parameter, maximum plasma concentration; assay type: ADME, organism-based; conditions: mouse
[26] = tested on: Mus musculus; assay: Compound was evaluated for inhibition of interleukin - 2 (IL-2) production in anti -CD3 mAb stimulation in mice after intraperitoneal administration; assay type: functional; conditions: ip
[27] = tested on: Mus musculus; assay: Compound was evaluated for inhibition of interleukin - 2 (IL-2) production in anti -CD3 mAb stimulation in mice after oral administration; assay type: functional
[28] = biological target: Vascular endothelial growth factor receptor 2 (Homo sapiens, UniProt P35968); assay: Inhibition of Vascular endothelial growth factor receptor 2
[29] = biological target: T2, Angiopoietin-1 receptor; assay: Inhibition of TIE-2 kinase

Tyrosine-protein kinase Lck, sequence (P06239 whole entry): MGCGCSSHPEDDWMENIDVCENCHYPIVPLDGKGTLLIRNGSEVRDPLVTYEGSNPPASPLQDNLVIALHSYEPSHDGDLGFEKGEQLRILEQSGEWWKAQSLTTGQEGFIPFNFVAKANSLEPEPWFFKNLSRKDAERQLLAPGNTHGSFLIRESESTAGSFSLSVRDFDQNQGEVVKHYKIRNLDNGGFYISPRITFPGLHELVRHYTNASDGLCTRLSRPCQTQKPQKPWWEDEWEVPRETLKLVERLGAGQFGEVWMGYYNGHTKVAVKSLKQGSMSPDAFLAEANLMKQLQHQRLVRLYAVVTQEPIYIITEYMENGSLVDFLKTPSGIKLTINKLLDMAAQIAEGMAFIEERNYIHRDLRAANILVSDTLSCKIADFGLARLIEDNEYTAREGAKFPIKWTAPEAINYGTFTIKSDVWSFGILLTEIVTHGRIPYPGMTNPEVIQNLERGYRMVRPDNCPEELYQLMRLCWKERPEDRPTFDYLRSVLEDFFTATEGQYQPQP
Proto-oncogene tyrosine-protein kinase Src, sequence (P12931 2-536 limits assumed): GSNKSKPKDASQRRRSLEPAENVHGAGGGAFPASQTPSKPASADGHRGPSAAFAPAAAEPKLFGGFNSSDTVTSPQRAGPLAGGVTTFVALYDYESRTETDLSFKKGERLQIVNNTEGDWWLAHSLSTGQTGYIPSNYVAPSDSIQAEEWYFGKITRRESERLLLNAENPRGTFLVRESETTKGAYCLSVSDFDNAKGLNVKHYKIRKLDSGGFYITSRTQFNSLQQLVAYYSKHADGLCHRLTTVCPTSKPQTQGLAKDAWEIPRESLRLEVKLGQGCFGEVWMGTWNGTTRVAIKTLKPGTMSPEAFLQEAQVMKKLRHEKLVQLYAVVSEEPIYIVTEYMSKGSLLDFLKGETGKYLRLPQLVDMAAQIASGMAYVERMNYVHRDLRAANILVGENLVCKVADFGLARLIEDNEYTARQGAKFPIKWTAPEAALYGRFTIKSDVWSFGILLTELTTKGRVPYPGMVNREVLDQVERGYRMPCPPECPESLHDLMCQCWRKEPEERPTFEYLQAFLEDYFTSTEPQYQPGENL
T2 sequence (Q02763 whole entry): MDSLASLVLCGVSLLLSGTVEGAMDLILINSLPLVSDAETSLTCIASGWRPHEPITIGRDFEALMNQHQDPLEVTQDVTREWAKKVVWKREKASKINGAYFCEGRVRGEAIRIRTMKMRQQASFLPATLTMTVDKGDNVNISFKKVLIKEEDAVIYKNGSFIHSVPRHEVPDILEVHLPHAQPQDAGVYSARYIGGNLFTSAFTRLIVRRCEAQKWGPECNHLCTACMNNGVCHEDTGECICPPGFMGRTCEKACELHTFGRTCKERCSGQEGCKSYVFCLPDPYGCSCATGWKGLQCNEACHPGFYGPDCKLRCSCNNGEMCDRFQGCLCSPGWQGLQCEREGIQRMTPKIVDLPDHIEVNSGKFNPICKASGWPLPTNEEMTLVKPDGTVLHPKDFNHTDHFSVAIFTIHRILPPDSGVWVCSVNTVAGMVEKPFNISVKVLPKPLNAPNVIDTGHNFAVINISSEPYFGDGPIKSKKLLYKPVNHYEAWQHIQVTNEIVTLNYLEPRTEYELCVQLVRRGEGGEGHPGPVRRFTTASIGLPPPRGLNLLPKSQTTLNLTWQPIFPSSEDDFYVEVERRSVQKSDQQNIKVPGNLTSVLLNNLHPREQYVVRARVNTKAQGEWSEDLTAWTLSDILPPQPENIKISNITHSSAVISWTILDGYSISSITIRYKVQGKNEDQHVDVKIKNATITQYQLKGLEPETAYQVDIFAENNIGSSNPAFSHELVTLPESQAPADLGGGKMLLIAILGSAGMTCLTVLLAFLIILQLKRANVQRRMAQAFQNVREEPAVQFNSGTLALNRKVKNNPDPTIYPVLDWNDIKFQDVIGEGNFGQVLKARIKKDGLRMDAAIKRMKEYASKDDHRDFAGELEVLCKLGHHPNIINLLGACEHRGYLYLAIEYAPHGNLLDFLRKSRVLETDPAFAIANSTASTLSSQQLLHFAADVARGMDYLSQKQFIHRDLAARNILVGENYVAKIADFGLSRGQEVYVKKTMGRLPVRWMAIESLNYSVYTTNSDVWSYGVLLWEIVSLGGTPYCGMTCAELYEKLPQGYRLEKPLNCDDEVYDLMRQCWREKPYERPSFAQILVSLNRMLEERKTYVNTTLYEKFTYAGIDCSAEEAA
Tyrosine-protein kinase Blk, sequence (P51451 whole entry): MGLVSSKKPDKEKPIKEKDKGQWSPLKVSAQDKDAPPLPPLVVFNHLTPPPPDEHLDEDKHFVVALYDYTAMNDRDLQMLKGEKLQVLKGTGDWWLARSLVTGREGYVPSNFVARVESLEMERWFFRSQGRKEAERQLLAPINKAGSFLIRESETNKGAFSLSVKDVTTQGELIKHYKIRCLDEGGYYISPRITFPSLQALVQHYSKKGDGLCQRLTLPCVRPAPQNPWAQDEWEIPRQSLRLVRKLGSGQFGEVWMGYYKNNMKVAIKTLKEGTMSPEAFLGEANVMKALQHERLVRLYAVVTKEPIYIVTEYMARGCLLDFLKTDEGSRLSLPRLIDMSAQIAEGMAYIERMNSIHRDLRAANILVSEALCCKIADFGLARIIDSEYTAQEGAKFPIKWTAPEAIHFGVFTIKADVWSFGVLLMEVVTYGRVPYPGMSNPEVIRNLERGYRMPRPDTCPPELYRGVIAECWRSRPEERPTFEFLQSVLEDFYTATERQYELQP
Tyrosine-protein kinase Lyn, sequence (P07948 whole entry): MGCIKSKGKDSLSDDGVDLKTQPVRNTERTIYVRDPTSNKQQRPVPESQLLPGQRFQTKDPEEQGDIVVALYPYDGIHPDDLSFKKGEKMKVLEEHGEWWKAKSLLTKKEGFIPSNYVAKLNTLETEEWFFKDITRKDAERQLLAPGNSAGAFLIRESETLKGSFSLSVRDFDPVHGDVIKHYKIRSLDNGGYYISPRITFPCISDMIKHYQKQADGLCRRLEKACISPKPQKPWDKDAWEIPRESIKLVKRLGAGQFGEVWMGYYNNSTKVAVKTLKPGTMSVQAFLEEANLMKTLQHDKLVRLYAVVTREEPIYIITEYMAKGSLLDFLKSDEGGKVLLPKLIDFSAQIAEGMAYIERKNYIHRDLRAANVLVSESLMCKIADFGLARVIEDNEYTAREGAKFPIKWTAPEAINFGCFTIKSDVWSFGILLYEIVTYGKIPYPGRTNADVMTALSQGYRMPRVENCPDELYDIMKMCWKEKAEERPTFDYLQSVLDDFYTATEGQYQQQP
Tyrosine-protein kinase Fyn, sequence (P06241 whole entry): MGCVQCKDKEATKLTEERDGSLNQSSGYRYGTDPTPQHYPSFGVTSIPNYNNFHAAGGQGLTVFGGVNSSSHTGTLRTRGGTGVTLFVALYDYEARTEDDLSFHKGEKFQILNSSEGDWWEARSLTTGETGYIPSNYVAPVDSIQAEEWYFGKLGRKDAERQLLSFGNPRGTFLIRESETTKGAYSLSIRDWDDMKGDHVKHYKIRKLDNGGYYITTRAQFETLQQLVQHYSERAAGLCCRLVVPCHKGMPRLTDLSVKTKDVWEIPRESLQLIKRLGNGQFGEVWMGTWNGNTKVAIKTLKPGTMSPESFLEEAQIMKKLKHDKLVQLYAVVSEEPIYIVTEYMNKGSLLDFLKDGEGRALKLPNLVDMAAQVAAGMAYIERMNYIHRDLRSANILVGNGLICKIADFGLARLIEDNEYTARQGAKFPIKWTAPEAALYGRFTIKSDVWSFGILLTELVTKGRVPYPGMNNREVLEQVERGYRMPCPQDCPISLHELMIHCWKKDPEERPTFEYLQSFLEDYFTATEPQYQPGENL
Vascular endothelial growth factor receptor 2, sequence (P35968 whole entry): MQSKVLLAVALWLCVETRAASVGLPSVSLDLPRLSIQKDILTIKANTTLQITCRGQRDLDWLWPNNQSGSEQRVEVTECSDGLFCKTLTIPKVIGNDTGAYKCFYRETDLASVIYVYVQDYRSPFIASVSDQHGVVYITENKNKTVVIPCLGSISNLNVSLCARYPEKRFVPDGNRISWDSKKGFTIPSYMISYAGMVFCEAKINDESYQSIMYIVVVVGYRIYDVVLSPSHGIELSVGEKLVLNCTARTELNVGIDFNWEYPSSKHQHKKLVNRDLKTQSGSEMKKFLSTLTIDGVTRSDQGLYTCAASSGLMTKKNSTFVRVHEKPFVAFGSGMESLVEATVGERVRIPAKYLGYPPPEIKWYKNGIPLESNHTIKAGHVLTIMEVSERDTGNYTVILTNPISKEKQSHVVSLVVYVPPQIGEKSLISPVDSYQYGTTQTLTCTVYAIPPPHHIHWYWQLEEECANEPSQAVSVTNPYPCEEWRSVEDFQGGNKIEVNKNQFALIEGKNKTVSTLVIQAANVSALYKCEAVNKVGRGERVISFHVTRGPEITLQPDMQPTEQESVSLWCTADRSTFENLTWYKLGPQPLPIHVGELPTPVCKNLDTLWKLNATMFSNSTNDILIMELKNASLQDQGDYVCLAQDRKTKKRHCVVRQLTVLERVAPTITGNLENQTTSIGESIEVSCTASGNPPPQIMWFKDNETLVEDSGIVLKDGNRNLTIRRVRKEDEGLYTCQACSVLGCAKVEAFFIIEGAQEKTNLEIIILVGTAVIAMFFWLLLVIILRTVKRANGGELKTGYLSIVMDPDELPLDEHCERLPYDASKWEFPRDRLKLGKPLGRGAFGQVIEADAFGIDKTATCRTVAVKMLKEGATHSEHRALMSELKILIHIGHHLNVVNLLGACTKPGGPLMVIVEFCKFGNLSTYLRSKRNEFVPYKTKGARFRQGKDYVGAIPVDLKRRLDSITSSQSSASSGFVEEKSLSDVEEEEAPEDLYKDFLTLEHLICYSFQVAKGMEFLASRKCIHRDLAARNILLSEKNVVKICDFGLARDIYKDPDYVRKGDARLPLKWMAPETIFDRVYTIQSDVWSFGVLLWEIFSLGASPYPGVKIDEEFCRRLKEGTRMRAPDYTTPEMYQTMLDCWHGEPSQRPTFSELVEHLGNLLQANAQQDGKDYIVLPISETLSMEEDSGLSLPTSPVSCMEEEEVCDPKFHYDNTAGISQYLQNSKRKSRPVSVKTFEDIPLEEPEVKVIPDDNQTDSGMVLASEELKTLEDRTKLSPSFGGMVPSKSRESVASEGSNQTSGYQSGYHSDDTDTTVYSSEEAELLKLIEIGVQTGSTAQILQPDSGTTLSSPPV

SMILES: CN1CCN([C@H]2CC[C@@H](n3cc(-c4ccc(Oc5ccccc5)cc4)c4c(N)ncnc43)CC2)CC1.O=C(O)/C=C\C(=O)O
ED50 [1]: 2.5 mg/kg

SMILES: CN1CCN([C@H]2CC[C@H](n3cc(-c4ccc(Oc5ccccc5)cc4)c4c(N)ncnc43)CC2)CC1
IC50 [2]: 4270 nM
IC50 [3]: 5850 nM
IC50 [4]: 430 nM
IC50 [5]: 240 nM
IC50 [6]: 2030 nM
IC50 [7]: 370 nM
IC50 [8]: 1190 nM

SMILES: NCCn1cc(-c2ccc(Oc3ccccc3)cc2)c2c(N)ncnc21
IC50 [21]: > 50000 nM

Second part, led by results:

half-life [9]: 14.3 h
Tmax [10]: 4 h
clearance [11]: 88.3 mL/min/kg
bioavailability [12]: 54%
Vd [13]: 140 L/kg
AUC [14]: 661 ng·h/mL
IC50 [15]: 70 nM
IC50 [16]: 25 nM
IC50 [18]: > 20000 nM
IC50 [19]: 41 nM
IC50 [4]: 29 nM
IC50 [5]: 15 nM
IC50 [6]: 59 nM
Cmax [20]: 113 nM
IC50 [7]: 46 nM
IC50 [8]: 42 nM
IC50 [21]: 250 nM
SMILES: CN1CCN([C@H]2CC[C@@H](n3cc(-c4ccc(Oc5ccccc5)cc4)c4c(N)ncnc43)CC2)CC1
ED50 [17]: 2.2 mg/kg

Tmax [22]: 0.25 h
half-life [23]: 7.7 h
AUC [24]: 34.3 ng·h/mL
Cmax [25]: 28 nM
IC50 [28]: 4440 nM
IC50 [5]: 100 nM
IC50 [29]: 9070 nM
IC50 [8]: 560 nM
SMILES: Nc1ncnc2c1c(-c1ccc(Oc3ccccc3)cc1)cn2C1CCCC1
ED50 [26]: 4 mg/kg
ED50 [27]: 25 mg/kg
